Experimental data taken from US20120238562A1, “TREATMENT OF CANCER BY TARGETING MOLECULES THAT INFLUENCE MST1/STK4 SIGNALING” (CEDARS-SINAI MEDICAL CENTER, priority 2011, published 2012).
“Also recorded” adds a separate entry of the source.

Key:
Format in all cases: cell-based, human
C4-2 cells = assay: Cell proliferation by MTS assay, C4-2 cells; conditions: for C4-2 cell growth / proliferation vs control (MTS, A490 nm): 48 h post treatment, vs DMSO, Ku0063794 1 μM, rapamycin 1 μM (p<0.1), BEZ-235 0.5 μM (p<0.002)
Experimental: A, B) LNCaP (A) or C4-2 (B) cells were treated with control (DMSO), LY294002 (20 μM), Ku0063794 (1 μM), rapamycin (1 μM), LY294002+Ku0063794, or LY294002+Rapamycin. C) C4-2 cells were treated with DMSO or the dual PI3K and mTOR inhibitor, BEZ-235 (0.5 μM). Control or drug treatments were performed in T-medium supplemented with 5% FBS and 1% Pen/Strep. Cell proliferation was determined by MTS assay (A490 nm) at 48 h post treatment. D) Levels of endogenous total Mst1 by western blot in cytoplasmic (C) and nuclear (N) fractions from C4-2 cells that were transfected with scramble or Mst1 specific SiRNa. B-actin was used as a loading control. E) Effects of DMSO or CCI-779 on C4-2 cell proliferation with scramble or MSt1 knockdown conditions. Cell proliferation was determined by MTS (A490 nm) at 72 h post transfection. Data are representative of multiple experiments.
Cell proliferation was measured using CellTiter 96 AQueous with MTS reagent (Promega, Madison, Wis.). Briefly, cells in RPMI-medium plus 10% fetal bovine serum were added to 96-well plates at 4,000 cells per well in quadruplicate. After 24 h, LY290042, Ku0063794, Rapamycin, CCI-779 or BEZ-235 alone or combined were added, and cells were cultured for the indicated time. DMSO was used as a control. At 24 h post siRNA transfection, cells were treated with DMSO control or CCI-779 and incubated up to 72 h. MTS and phenazine methosulfate solution (20 μL/well) was added and the absorbance at 490 nm was recorded using a microplate reader (BMG Labtech; Cary, N.C.). For the clonogenic assay, 500 cells per well were seeded and cultured in 6-well plates for a week in the presence of Dox (0.5 μg/mL) in serum-fed conditions. The medium was changed every 3 days. Colonies were fixed with formaldehyde (4% v/v) and stained with crystal violet (0.5%). Representative views from triplicate experiments were photographed and quantified. […] After 14 days, colonies were photographed and quantified. […]

[1] = test system: Mst1-T120 phosphorylation; assay: Western blot of Mst1-T120 phosphorylation in cytoplasmic and nuclear fractions of C4-2 cells; conditions: serum-deprived, 3 h post treatment, vs DMSO control, LY294002 20 μM, Ku0063794 1 μM, CCI-779 1 μM
Experimental: (§1) A) Schematic representation of the GST-Mst1 peptide with wild type (wt) T120 or T120A mutations. B) In vitro kinase assay with bacterially expressed and purified GST-only, GST-Mst1-T120 wt, or GST-Mst1-T120A mutant peptide and the recombinant pre-activated Akt kinase. Western blots were probed with pMst1-T120 antibody. Ponceau S stained purified GST, GST-Mst1-T120, or GST-Mst1-T120A mutant peptide. C) LNCaP cells were treated with DMSO (vehicle) control, a specific PI3K inhibitor, LY294002 (20 μM), or mTOR inhibitor, Ku0063794 (1 μM) in serum-starved conditions. […]
(§2) A nuclear extraction kit according to the manufacturer's protocol (Affymetrix, Santa Clara, Calif.) was used to isolate cytoplasmic and nuclear fractions. […] Protein concentrations were determined by the Lowry method (Bio-Rad, Hercules, Calif.). […] Signals were detected using SuperSignal West Pico Chemiluminescence Substrate (Thermo Scientific, Roxford, Ill.).
(§3) The inventors generated GST-Mst1 peptide with T120-wt or T120A mutations (FIG. 2A). […] The inventors then assessed the effects of PI3K-Akt inhibition on Mst1-T120 phosphorylation in its respective location in the cell. […] The levels of phospho-Mst1-T120 were assessed by western blot in cytoplasmic and nuclear fractions. […]

Mst1 = assay: Western blot of Mst1 nuclear accumulation in C4-2 cells; conditions: Ku0063794 1 μM or CCI-779 1 μM, 3 h post treatment
Experimental: A) Schematic representation of the GST-Mst1 peptide with wild type (wt) T120 or T120A mutations. B) In vitro kinase assay with bacterially expressed and purified GST-only, GST-Mst1-T120 wt, or GST-Mst1-T120A mutant peptide and the recombinant pre-activated Akt kinase. Western blots were probed with pMst1-T120 antibody. Ponceau S stained purified GST, GST-Mst1-T120, or GST-Mst1-T120A mutant peptide. C) LNCaP cells were treated with DMSO (vehicle) control, a specific PI3K inhibitor, LY294002 (20 μM), or mTOR inhibitor, Ku0063794 (1 μM) in serum-starved conditions. D) C4-2 cells were treated with Temsirolimus (CCI-779), an mTORC1 inhibitor (1 μM) in addition to DMSO, LY294002 and Ku0063794 under the same experimental conditions as in “C”. E) C4-2 cells treated with DMSO or LY294002 and CCI-779. Control/DMSO or drug treatment in “C,” “D,” or “E” was performed under serum-deprived conditions. Western blots were probed with antibodies to corresponding proteins at 3 h post treatment. Lam-A/C:Lamin-A/C. […]
as §2, with “Ill.). […]” for “Ill.).”

Akt = Akt activation in C4-2 cells under mTOR inhibition; conditions: castration-resistant prostate cancer cells (C4-2), same conditions as Mst1-T120 hyper-phosphorylation
Experimental: A) Schematic representation of the GST-Mst1 peptide with wild type (wt) T120 or T120A mutations. B) In vitro kinase assay with bacterially expressed and purified GST-only, GST-Mst1-T120 wt, or GST-Mst1-T120A mutant peptide and the recombinant pre-activated Akt kinase. Western blots were probed with pMst1-T120 antibody. Ponceau S stained purified GST, GST-Mst1-T120, or GST-Mst1-T120A mutant peptide. C) LNCaP cells were treated with DMSO (vehicle) control, a specific PI3K inhibitor, LY294002 (20 μM), or mTOR inhibitor, Ku0063794 (1 μM) in serum-starved conditions. D) C4-2 cells were treated with Temsirolimus (CCI-779), an mTORC1 inhibitor (1 μM) in addition to DMSO, LY294002 and Ku0063794 under the same experimental conditions as in “C”. E) C4-2 cells treated with DMSO or LY294002 and CCI-779. Control/DMSO or drug treatment in “C,” “D,” or “E” was performed under serum-deprived conditions. Western blots were probed with antibodies to corresponding proteins at 3 h post treatment. Lam-A/C:Lamin-A/C. Data are representative of multiple experiments.
Consistent with this finding, PI3K and mTORC1 inhibition combined synergistically to prevent the proliferation of C4-2 cells compared to a single agent (FIG. 3B). […]

[2] = test system: Mst1-T120 phosphorylation; assay: Western blot of Mst1-T120 phosphorylation in cytoplasmic and nuclear fractions of LNCaP cells; conditions: serum-starved, 3 h post treatment, vs DMSO control, LY294002 20 μM, Ku0063794 1 μM
Experimental: as §1, §2, §3

[3] = test system: Mst1-T183 phosphorylation; assay: Mst1-T183 phosphorylation in treated prostate cancer cells; conditions: prostate cancer cells treated with inhibitor
Experimental: However, the levels of […] phosphorylation were unchanged when cells were treated with a potent mTOR inhibitor, Ku0063794, (FIG. 3). […] Based on these observations, the inventors therefore conclude that Mst1-phosphorylation at T120 or at […] are unrelated events or is modulated by different mechanisms, at least in prostate cancer cells.

Structure (SMILES)	C4-2 cell growth / proliferation vs control (MTS, A490 nm) (C4-2 cells)	Mst1-T120 phosphorylation [1]	Mst1 nuclear accumulation (Mst1)	C4-2 cell proliferation under Mst1 knockdown vs scramble siRNA (MTS, A490 nm) (C4-2 cells; Mst1 siRNA vs scramble siRNA, CCI-779 vs DMSO, 72 h post transfection)	Akt activation (Akt)	Mst1-T120 phosphorylation in cell nuclei [2]	Mst1-T183 phosphorylation [3]
Cn1c(=O)n(-c2ccc(C(C)(C)C#N)cc2)c2c3cc(-c4cnc5ccccc5c4)ccc3ncc21 [BEZ-235]	significantly inhibited	–	–	–	–	–	–
CO[C@H]1C[C@@H]2CC[C@@H](C)[C@@](O)(O2)C(=O)C(=O)N2CCCC[C@H]2C(=O)O[C@H]([C@H](C)C[C@@H]2CC[C@@H](OC(=O)C(C)(CO)CO)[C@H](OC)C2)CC(=O)[C@H](C)/C=C(\C)[C@@H](O)[C@@H](OC)C(=O)[C@H](C)C[C@H](C)/C=C/C=C/C=C/1C [CCI-779, temsirolimus]	–	hyper-phosphorylation; also recorded: hyperphosphorylation	increase	sensitized	did not observe Akt activation	–	–
COc1ccc(-c2ccc3c(N4CCOCC4)nc(N4C[C@@H](C)O[C@@H](C)C4)nc3n2)cc1CO [Ku0063794]	failed to significantly inhibit	hyper-phosphorylation; also recorded: hyperphosphorylation	increase	–	did not observe Akt activation	unable to prevent	unchanged
